Results reported in US20230105212A1, “BIPHENYL DERIVATIVE INHIBITOR, PREPARATION METHOD THEREFOR AND USE THEREOF” (SHANGHAI HANSOH BIOMEDICAL CO., LTD., priority 2020, published 2023).

Key:
[1] = target: T1, human PD-1/PD-L1 binding (Homo sapiens, UniProt Q9NZQ7); assay: Inhibition of human PD-1/PD-L1 binding (TR-FRET/HTRF); details: TR-FRET, PD-L1-His and PD-1-Fc; read-out: PD-1/PD-L1 binding IC50
T1 construct: PD-L1-His protein (19 to 238 amino acids) (Abcam #ab167713); purchased Abcam (PD-L1-His); R&D (PD-1-Fc) ab167713; 1086-PD
Procedure, shortened: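 PD-L1-His (aa 19–238, diluted to 10 nM) and PD-1-Fc (aa 25–167, diluted to 20 nM) incubated with compounds (10 μM or 1 μM top, 3-fold, 11 doses) 60 min at room temperature, then anti-6HIS Eu cryptate/anti-human IgG-XL665 added for 3 h RT or overnight 4 °C. HTRF 665/620 nm ratio gave inhibition and IC50.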

[2] = Pharmacokinetics test in Balb/C mice; format: in vivo; details: male, mouse, po, p.o. 5 mg/kg, plasma; for MRT inf: read-out: Average residence time MRT0−∞; for AUC(0-t): read-out: Curve area AUC0−t; for Cmax: read-out: Drug concentration in plasma Cmax; for half-life: read-out: Half life t1/2 (converted); for Tmax: read-out: Peak time tmax
Experimental: Test Embodiment 6. Pharmacokinetics Test in Balb/C Mice
Taking Balb/C mice as the test animals, the pharmacokinetic behavior in the plasma of mice of the following compound embodiments was studied when orally administered at a dose of 5 mg/kg.
Balb/C Mouse 6/embodiment, male, Shanghai Jisijie Laboratory Animal Co., Ltd., animal production license number (SCXK (Shanghai) 2013-0006 No. 311620400001794).
0.5% HPMC (1% Tween 80), dissolved by sonication, to prepare a clear solution or a homogeneous suspension.
Balb/C mice, male; p.o. after overnight fasting, respectively, at a dose of 5 mg/kg, administered in a volume of 10 mL/kg.
Before and after administration of mice, at 0, 0.5, 1, 2, 4, 6, 8 and 24 hours, 0.1 mL of blood was collected from the orbit, placed in an EDTA-K2 test tube, and centrifuged at 6000 rpm at 4° C. for 6 min to separate the plasma, stored at −80° C.
1) 40 μL of plasma samples were added to 160 μL of acetonitrile for precipitation, mixed and centrifuged at 3500×g for 5 to 20 minutes.
2) 100 μL of the supernatant solution after treatment was taken for LC/MS/MS to analyze the concentration of the compounds to be tested.
2.6 Liquid Phase Analysis • Liquid phase condition: Shimadzu LC-20AD pump • MS conditions: AB Sciex API 4000 Mass Spectrometer • Chromatographic column: phenomenex Gemiu 5 μm C18 50×4.6 mm • Mobile phase: A solution was aqueous 0.1% formic acid solution, B solution was acetonitrile • Flow rate: 0.8 mL/min • Elution time: 0 to 4.0 minutes, the eluent was as follows:
The main parameters of pharmacokinetics were calculated with WinNonlin 8.2, and the results of the mice pharmacokinetic experiments were shown in the following table: […]

[3] = target: T2, PD-L1 protein on the surface of MC38-hPDL1 tumor cells (Homo sapiens, UniProt Q9NZQ7); assay: Induction of endocytosis of PD-L1 on the surface of tumor cells (flow cytometry); format: cell-based; details: 16 hours incubation; for Emax: MC38-hPDL1 cells, read-out: MC38 maximum endocytosis rate; for IC50: inducing endocytosis of PD-L1, MC38-hPDL1 cells, read-out: MC38 IC50
T2 construct: expressed in transfected cells; host or cells: MC38-hPDL1 (mouse colon cancer cells)
Procedure, shortened: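 MC38-hPDL1 mouse colon cancer cells overexpressing human PD-L1 were exposed to compound dilutions for 16 h at 37 °C. Surface PD-L1 was then stained with PE anti-human CD274 for 30 min at room temperature and measured by flow cytometry. Endocytosis rate versus concentration was fitted by nonlinear regression to give IC50.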

T1 sequence (Q9NZQ7 19-238): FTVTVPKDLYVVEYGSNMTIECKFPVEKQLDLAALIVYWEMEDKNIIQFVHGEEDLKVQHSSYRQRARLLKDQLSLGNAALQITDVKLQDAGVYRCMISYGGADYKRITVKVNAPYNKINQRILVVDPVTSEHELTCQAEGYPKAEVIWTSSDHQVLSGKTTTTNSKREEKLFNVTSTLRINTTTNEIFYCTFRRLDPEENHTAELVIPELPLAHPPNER
T2 sequence (Q9NZQ7 19-290): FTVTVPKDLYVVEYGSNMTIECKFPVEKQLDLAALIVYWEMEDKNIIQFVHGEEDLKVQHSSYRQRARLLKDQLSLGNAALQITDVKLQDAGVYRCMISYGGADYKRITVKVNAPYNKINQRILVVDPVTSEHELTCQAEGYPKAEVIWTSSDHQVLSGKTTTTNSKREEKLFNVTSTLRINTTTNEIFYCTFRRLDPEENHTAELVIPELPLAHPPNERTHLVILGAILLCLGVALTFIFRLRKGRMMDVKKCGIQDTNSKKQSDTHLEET

Row | SMILES | IC50 [1] [nM] | MRT inf [2] [h] | AUC(0-t) [2] [ng·h/mL] | Cmax [2] [ng/mL] | half-life [2] [h] | Tmax [2] [h] | Emax [3] [%] | IC50 [3] [nM]
1 | COc1nc(-c2cccc(-c3cccc(NC(=O)c4nc5c(n4C)CCN(C)C5)c3Cl)c2Cl)ncc1CN1CC(CO)C1 [Embodiment 223, N-(2,2′-Dichloro-3′-(5-((3-(hydroxymethyl)azetidin-1-yl)methyl)-4-methoxypyrimidin-2-yl)-[1,1′-biphenyl]-3-yl)-1,5-dimethyl-4,5,6,7-tetrahydro-1H-imidazo[4,5-c]pyridine-2-carboxamide] | 2.4 | 16 | 356 | 24 | 10.5 | 1 | 94 | 
2 | COc1nc(-c2cccc(-c3cccc(NC(=O)c4nc5c(n4C)CCN(C)C5)c3Cl)c2Cl)ccc1CN1CC(F)C1 [Embodiment 120, N-(2,2′-Dichloro-3′-(5-((3-fluoroazetidin-1-yl)methyl)-6-methoxypyridin-2-yl)-[1,1′-biphenyl]-3-yl)-1,5-dimethyl-4,5,6,7-tetrahydro-1H-imidazo[4,5-c]pyridine-2-carboxamide] | 7.4 | 17 | 500 | 34 | 12 | 2 | 95 | 1.2
3 | COc1nc(-c2cccc(-c3cccc(NC(=O)c4nc5c(n4C)CCN(C)C5)c3Cl)c2Cl)ccc1CN1CC2(CCC(=O)N2)C1 [Embodiment 126, N-(2,2′-Dichloro-3′-(6-methoxy-5-((6-carbonyl-2,5-diazaspiro[3.4]octan-2-yl)methyl)pyridin-2-yl)-[1,1′-biphenyl]-3-yl)-1,5-dimethyl-4,5,6,7-tetrahydro-1H-imidazo[4,5-c]pyridine-2-carboxamide] | 2 | 12.3 | 677 | 54 | 8.4 | 2 | 97 | 1

Next, values leading:

Row | IC50 [1] [nM] | MRT inf [2] [h] | AUC(0-t) [2] [ng·h/mL] | Cmax [2] [ng/mL] | half-life [2] [h] | Tmax [2] [h] | Emax [3] [%] | IC50 [3] [nM] | SMILES
4 | 4.6 | 69 | 743 | 37 | 47 | 6 | 97 | 0.7 | COc1nc(-c2cccc(-c3cccc(NC(=O)c4nc5c(n4C)CCN(C)C5)c3Cl)c2Cl)ccc1CNC[C@H](C)O [Embodiment 127, (S)—N-(2,2′-Dichloro-3′-(5-(((2-hydroxypropyl)amino)methyl)-6-methoxypyridin-2-yl)-[1,1′-biphenyl]-3-yl)-1,5-dimethyl-4,5,6,7-tetrahydro-1H-imidazo[4,5-c]pyridine-2-carboxamide]
5 | 3.8 | 12.9 | 887 | 116 | 9.5 | 2 | 96 | 0.6 | COc1nc(-c2cccc(-c3cccc(NC(=O)c4nc5c(n4C)CCN(C)C5)c3Cl)c2Cl)ccc1CN1CC(NC(C)=O)C1 [Embodiment 180, N-(3′-(5-((3-Acetylaminoazetidin-1-yl)methyl)-6-methoxypyridin-2-yl)-2,2′-dichloro-[1,1′-biphenyl]-3-yl)-1,5-dimethyl-4,5,6,7-tetrahydro-1H-imidazo[4,5-c]pyridine-2-carboxamide]
6 | 4.7 | 16.8 | 1190 | 75 | 10.9 | 6 | 95 |  | COc1nc(-c2cccc(-c3cccc(NC(=O)c4nc5c(n4C)CCN(C)C5)c3Cl)c2Cl)ccc1CN1CC(C(=O)N(C)C)C1 [Embodiment 183, N-(2,2′-Dichloro-3′-(5-((3-(dimethylcarbamoyl)azetidin-1-yl)methyl)-6-methoxypyridin-2-yl)-[1,1′-biphenyl]-3-yl)-1,5-dimethyl-4,5,6,7-tetrahydro-1H-imidazo[4,5-c]pyridine-2-carboxamide]
